Measured values as given in PubChem BioAssay AID330 (DTP/NCI, 2004).
Several values for one entry are separate records, joined by “and”; a condition that tells them apart may be missing. Identical values can stand only once. Toxic doses and inconclusive results are not listed. Rule for the calls: active = survival T/C of 150% or more; inactive = T/C below 125% in these data.

Test system: P388 leukemia ip, CD2F1 mice, survival T/C
Experiment: NCI In Vivo Anticancer Drug Screen. Data for tumor model P388 Leukemia (intraperitoneal) in CD2F1 (CDF1) mice
Conditions: endpoint: median survival time, higher = longer survival
Summary of the method: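 Mice carrying the transplanted tumor received test compound or vehicle. Survival was recorded in each group, and the value is the treated-group measurement divided by that of the vehicle-treated control group.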

[1] = dose: 50.0 mg/kg/injection, schedule: Q01DX005 (ip), vehicle: Klucel (hydroxypropylcellulose) (HPC)
[2] = dose: 100.0 mg/kg/injection, schedule: Q01DX005 (ip), vehicle: Klucel (hydroxypropylcellulose) (HPC)
[3] = dose: 200.0 mg/kg/injection, schedule: Q01DX005 (ip), vehicle: Klucel (hydroxypropylcellulose) (HPC)
[4] = dose: 25.0 mg/kg/injection, schedule: Q01DX005 (ip), vehicle: Klucel (hydroxypropylcellulose) (HPC)
[5] = dose: 100.0 mg/kg/injection, schedule: Q04DX002 (ip), vehicle: saline with Tween-80
[6] = dose: 200.0 mg/kg/injection, schedule: Q04DX002 (ip), vehicle: saline with Tween-80
[7] = dose: 400.0 mg/kg/injection, schedule: Q04DX002 (ip), vehicle: saline with Tween-80

Measured: T/C

COc1ccc(C#CC2(O)c3ccccc3C(O)(C#Cc3ccc(OC)cc3)c3ccccc32)cc1 (configuration not stated)
inactive: dose: 50.0 mg/kg/injection, schedule: Q01DX009 (ip), vehicle: saline with Tween-80 98 % of control | dose: 100.0 mg/kg/injection, schedule: Q01DX009 (ip), vehicle: saline with Tween-80 98 % of control

Cn1c(=O)c2c(ncn2CCNC(c2ccccc2)c2ccc(Br)cc2)n(C)c1=O (configuration not stated)
inactive: dose: 6.25 mg/kg/injection, schedule: Q01DX005 (ip), vehicle: alkali diluted with saline 100 % of control | dose: 12.5 mg/kg/injection, schedule: Q01DX005 (ip), vehicle: alkali diluted with saline 96 % of control | dose: 25.0 mg/kg/injection, schedule: Q01DX005 (ip), vehicle: alkali diluted with saline 107 % of control

C#CCSc1nnnn1-c1ccc(Br)c(C)c1
inactive: [1] 101 % of control | [2] 92 % of control | [3] 101 % of control

CCCCCC1=CC2(F)C(=O)NC(=O)NC12 (configuration not stated)
inactive: dose: 12.5 mg/kg/injection, schedule: Q01DX005 (ip), vehicle: Klucel (hydroxypropylcellulose) (HPC) 97 % of control | [4] 98 % of control | [1] 108 % of control | [2] 95 % of control

O=C1C(=Cc2ccccc2O)C(=O)N(c2ccccc2)C(=S)N1c1ccccc1
inactive: [1] 100 % of control | [2] 100 % of control | [3] 100 % of control

C=CN=NNc1ccc(C#N)cc1
inactive: dose: 100.0 mg/kg/injection, schedule: Q04DX003 (ip), vehicle: saline with Tween-80 90 % of control | dose: 200.0 mg/kg/injection, schedule: Q04DX003 (ip), vehicle: saline with Tween-80 106 % of control

Clc1cccc(N=Cc2ccc(C=Nc3cccc(Cl)c3)cc2)c1
inactive: dose: 50.0 mg/kg/injection, schedule: Q01DX009 (ip), vehicle: Klucel (hydroxypropylcellulose) (HPC) 94 % of control | dose: 100.0 mg/kg/injection, schedule: Q01DX009 (ip), vehicle: Klucel (hydroxypropylcellulose) (HPC) 98 % of control

CCOC1=NC2(c3ccccc3)c3ccccc3SC12C (configuration not stated)
inactive: [1] 98 % of control | [2] 100 % of control | [3] 93 % of control

CCCC1C/C=C/C=C/C=C/C=C/C(OC2OC(C)C(O)C(N)C2O)CC(O)C(C(=O)O)C(O)CC(=O)CC(O)CCCC(=O)CC(O)C(CC)C(=O)O1 (configuration not stated)
inactive: dose: 2.5 mg/kg/injection, schedule: Q01DX009 (ip), vehicle: Klucel (hydroxypropylcellulose) (HPC) 94 % of control | dose: 5.0 mg/kg/injection, schedule: Q01DX009 (ip), vehicle: Klucel (hydroxypropylcellulose) (HPC) 106 % of control | dose: 10.0 mg/kg/injection, schedule: Q01DX009 (ip), vehicle: Klucel (hydroxypropylcellulose) (HPC) 92 % of control | dose: 20.0 mg/kg/injection, schedule: Q01DX009 (ip), vehicle: Klucel (hydroxypropylcellulose) (HPC) 87 % of control

CCOC(=O)C(Cc1cc2c(n1C)CCCC2)(NC(C)=O)C(=O)OCC
inactive: [4] 98 % of control | [1] 96 % of control | [2] 98 % of control | [3] 100 % of control

CN(C)C(=O)C1SCCCS1
inactive: [5] 107 % of control | [6] 108 % of control | [7] 108 % of control

CN1CCCC(C(=O)c2ccccc2)C1 (configuration not stated)
inactive: dose: 12.5 mg/kg/injection, schedule: Q01DX009 (ip), vehicle: saline 109 % of control | dose: 25.0 mg/kg/injection, schedule: Q01DX009 (ip), vehicle: saline 105 % of control | dose: 50.0 mg/kg/injection, schedule: Q01DX009 (ip), vehicle: saline 107 % of control and 94 % of control

CN(C)c1ccc2c(c1)Oc1cc(N(C)C)ccc1C21c2ccccc2C(=O)N1N
inactive: [5] 100 % of control | [6] 90 % of control | [7] 90 % of control

O=S(=O)(c1cccc(C(F)(F)F)c1)N(CCCCCN(S(=O)(=O)c1cccc(C(F)(F)F)c1)S(=O)(=O)c1cccc(C(F)(F)F)c1)S(=O)(=O)c1cccc(C(F)(F)F)c1
inactive: dose: 60.0 mg/kg/injection, schedule: Q01DX005 (ip), vehicle: Klucel (hydroxypropylcellulose) (HPC) 101 % of control | dose: 120.0 mg/kg/injection, schedule: Q01DX005 (ip), vehicle: Klucel (hydroxypropylcellulose) (HPC) 92 % of control | dose: 240.0 mg/kg/injection, schedule: Q01DX005 (ip), vehicle: Klucel (hydroxypropylcellulose) (HPC) 88 % of control
